Assay results: ChEMBL document CHEMBL3808331, “Functionalized N,N-Diphenylamines as Potent and Selective EPAC2 Inhibitors” (ACS Med Chem Lett, 2016)
Activity calls are given as the source filed them. No cut-off for these calls is given here.

Assays:
[1] = molecular target: T1, Rap guanine nucleotide exchange factor 4 (Homo sapiens, UniProt Q8WZA2); assay: Inhibition of 8-NBD-cAMP binding to EPAC2 (unknown origin) by microplate reader analysis
[2] = molecular target: T1, Rap guanine nucleotide exchange factor 4; assay: Inhibition of EPAC2 (unknown origin) assessed as reduction in cAMP-mediated guanine nucleotide exchange factor activity in presence of C-terminal truncated Rap1B (1 to 167 residues)-BODIPY-GDP by microplate reader analysis; conditions: for inhibition: concentration not given here
[3] = molecular target: T2, Rap guanine nucleotide exchange factor 3 (Homo sapiens) (UniProt O95398); assay: Inhibition of EPAC1 (unknown origin) assessed as reduction in cAMP-mediated guanine nucleotide exchange factor activity up to 100 uM in presence of C-terminal truncated Rap1B (1 to 167 residues)-BODIPY-GDP by microplate reader analysis
T2 sequence (whole entry): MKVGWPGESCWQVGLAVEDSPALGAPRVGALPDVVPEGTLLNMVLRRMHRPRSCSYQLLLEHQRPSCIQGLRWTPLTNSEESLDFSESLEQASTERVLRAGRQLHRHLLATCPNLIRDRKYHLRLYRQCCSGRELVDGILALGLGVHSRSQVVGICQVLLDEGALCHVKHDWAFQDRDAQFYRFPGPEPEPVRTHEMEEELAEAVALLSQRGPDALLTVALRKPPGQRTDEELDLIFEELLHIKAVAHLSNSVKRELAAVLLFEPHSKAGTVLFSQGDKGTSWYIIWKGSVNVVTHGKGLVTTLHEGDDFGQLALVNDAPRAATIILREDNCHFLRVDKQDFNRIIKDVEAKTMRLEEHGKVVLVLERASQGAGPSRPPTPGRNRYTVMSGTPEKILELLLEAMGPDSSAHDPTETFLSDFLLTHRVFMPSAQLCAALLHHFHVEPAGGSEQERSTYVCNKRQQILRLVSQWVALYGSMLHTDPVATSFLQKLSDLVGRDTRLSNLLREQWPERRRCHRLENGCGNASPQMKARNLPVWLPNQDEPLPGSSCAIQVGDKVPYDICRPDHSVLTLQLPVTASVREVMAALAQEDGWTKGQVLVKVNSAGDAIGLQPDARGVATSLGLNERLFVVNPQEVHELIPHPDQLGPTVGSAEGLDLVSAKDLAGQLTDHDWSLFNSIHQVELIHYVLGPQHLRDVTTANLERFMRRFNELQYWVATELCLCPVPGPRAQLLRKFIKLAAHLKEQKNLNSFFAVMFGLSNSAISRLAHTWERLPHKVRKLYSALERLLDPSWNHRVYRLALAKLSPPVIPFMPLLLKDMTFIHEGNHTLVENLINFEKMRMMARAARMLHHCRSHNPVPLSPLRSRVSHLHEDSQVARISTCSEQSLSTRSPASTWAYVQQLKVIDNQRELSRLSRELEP

[4] = molecular target: T1, Rap guanine nucleotide exchange factor 4; assay: Non-competitive inhibition of EPAC2 (unknown origin) assessed as reduction in cAMP-mediated guanine nucleotide exchange factor activity at 1 uM in presence of C-terminal truncated Rap1B (1 to 167 residues)-BODIPY-GDP
Target sequence in this assay (Q8WZA2 whole entry, looked up, the tested form may be a part): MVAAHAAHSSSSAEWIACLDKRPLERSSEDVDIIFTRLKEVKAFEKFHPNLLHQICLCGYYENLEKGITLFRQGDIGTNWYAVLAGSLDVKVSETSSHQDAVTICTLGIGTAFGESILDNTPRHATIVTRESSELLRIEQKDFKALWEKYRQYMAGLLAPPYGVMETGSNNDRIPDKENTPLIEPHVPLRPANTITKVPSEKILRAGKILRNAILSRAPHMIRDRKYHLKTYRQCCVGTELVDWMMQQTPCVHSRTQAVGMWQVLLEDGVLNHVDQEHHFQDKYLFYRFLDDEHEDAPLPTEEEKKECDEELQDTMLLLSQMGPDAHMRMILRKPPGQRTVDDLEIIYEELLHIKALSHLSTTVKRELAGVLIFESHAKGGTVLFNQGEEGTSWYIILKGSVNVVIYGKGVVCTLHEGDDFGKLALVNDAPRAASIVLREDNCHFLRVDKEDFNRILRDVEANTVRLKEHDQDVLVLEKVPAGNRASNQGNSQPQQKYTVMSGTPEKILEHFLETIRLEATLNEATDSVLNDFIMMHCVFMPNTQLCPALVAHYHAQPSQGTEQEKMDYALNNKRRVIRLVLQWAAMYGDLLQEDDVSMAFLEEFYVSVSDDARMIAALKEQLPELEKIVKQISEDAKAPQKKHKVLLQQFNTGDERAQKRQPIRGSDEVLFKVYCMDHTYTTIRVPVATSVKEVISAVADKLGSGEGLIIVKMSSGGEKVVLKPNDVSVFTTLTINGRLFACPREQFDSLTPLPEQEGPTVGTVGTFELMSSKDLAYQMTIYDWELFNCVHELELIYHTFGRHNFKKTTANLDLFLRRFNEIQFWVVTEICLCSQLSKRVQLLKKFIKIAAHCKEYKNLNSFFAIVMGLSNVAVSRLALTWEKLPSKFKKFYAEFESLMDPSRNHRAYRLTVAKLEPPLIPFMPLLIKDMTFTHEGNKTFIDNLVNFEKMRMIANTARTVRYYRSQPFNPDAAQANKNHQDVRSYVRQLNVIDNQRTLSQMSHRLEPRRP

Row | Compound | IC50 [1] [nM] | other results
1 | Cc1cc(C)c(Nc2ccc(Br)cc2)c(C)c1 | 1600 | 
2 | Cc1cc(C)c(Nc2c(F)cc(F)cc2F)c(C)c1 | 2700 | 
3 | Cc1cc(C)c(Nc2cc(Cl)c(Cl)c(Cl)c2)c(C)c1 | 1100 | 
4 | CCc1cccc(Nc2c(C)cc(C)cc2C)c1 | 1800 | 
5 | Cc1cc(C)c(Nc2cccc(C)c2C)c(C)c1 | 1000 | 
6 | Cc1cc(C)c(Nc2c(C)cc(Cl)cc2Cl)c(C)c1 | 700 | 
7 | Cc1cc(C)c(Nc2ccc(Cl)c(F)c2)c(C)c1 | 3300 | 
8 | Cc1cc(C)cc(Nc2c(C)cc(C)cc2C)c1 | 1700 | 
9 | Cc1cc(C)c(C#Cc2cccc(Nc3c(C)cc(C)cc3C)c2)c(C)c1 | > 300000 | 
10 | Cc1cc(C)c(Nc2cccc(N)c2)c(C)c1 | 34000 | 
11 | Cc1cc(C)c(Nc2cccc(F)c2)c(C)c1 | 5800 | 
12 | Cc1cc(C)c(Nc2cc(C(F)(F)F)cc(C(F)(F)F)c2)c(C)c1 | 600 | inhibition [1]: Dose-dependent effect; inhibition ([1]; concentration not given here): 60%; IC50 [2]: 1300 nM; inhibition [2]: > 80%; inhibition [3]: inactive
13 | Cc1cc(C)c(Nc2cccc(Cl)c2C)c(C)c1 | 500 | inhibition [1]: Dose-dependent effect; inhibition ([1]; concentration not given here): 80%; IC50 [2]: 3600 nM; inhibition [2]: > 80%; inhibition [3]: inactive
14 | Cc1cc(C)c(Nc2ccc(Cl)c(Cl)c2)c(C)c1 | 1100 | 
15 | Cc1cc(C)c(Nc2ccc(Cl)c(C(F)(F)F)c2)c(C)c1 | 400 | inhibition [1]: Dose-dependent effect; inhibition ([1]; concentration not given here): 80%; inhibition [4]: Active; IC50 [2]: 1000 nM; inhibition [2]: > 80%; inhibition [3]: inactive
16 | COc1cccc(Nc2c(C)cc(C)cc2C)c1 | 10700 | 

Row | Compound | IC50 [1] [nM] | other results
17 | Cc1cc(C)c(Nc2cc(F)cc(F)c2)c(C)c1 | 5700 | 
18 | Cc1cc(C)c(Nc2cc(C)ccc2C)c(C)c1 | 1800 | 
19 | Cc1cc(C)c(Nc2cc(Cl)ccc2C)c(C)c1 | 1400 | 
20 | Cc1ccc(Nc2c(C)cc(C)cc2C)c(C)c1 | 2200 | 
21 | Cc1cc(C)c(Nc2c(C)cc(C)cc2C)c(C)c1 | 400 | inhibition [1]: Dose-dependent effect; inhibition ([1]; concentration not given here): 80%; IC50 [2]: 1700 nM; inhibition [2]: > 80%; inhibition [3]: inactive
22 | Cc1cc(C)c(Nc2cccc(Br)c2)c(C)c1 | 1500 | 
23 | Cc1cc(C)c(Nc2ccc3c(c2)CCC3)c(C)c1 | 1800 | 
24 | Cc1cc(C)c(Nc2ccc(C)c(Cl)c2)c(C)c1 | 1800 | 
25 | Cc1cc(C)c(Nc2cc(Cl)cc(C(F)(F)F)c2)c(C)c1 | 500 | 
26 | Cc1cc(C)c(Nc2cc(F)cc(Cl)c2)c(C)c1 | 2900 | 
27 | Cc1cc(C)c(Nc2cc(F)c(F)c(F)c2)c(C)c1 | 3000 | 
28 | Cc1cc(C)c(Nc2cccc(C(F)(F)F)c2)c(C)c1 | 2000 | 
29 | Cc1cc(C)c(Nc2cccc(O)c2)c(C)c1 | 46000 | 
30 | Cc1cc(C)c(Nc2ccc(F)c(F)c2)c(C)c1 | 8700 | 
31 | CC(C)(C)c1cc(C(=O)/C(C#N)=N/Nc2cccc(Cl)c2)no1 |  | inhibition [2]: > 80%
32 | Cc1cc(C)c(Nc2ccc(F)c(Cl)c2)c(C)c1 | 2900 | 
